Converted amounts (≈) assume the structure as drawn.
How the values were obtained:
[1] = tested on: T1, Caco-2 maltase (maltose-hydrolysis activity of α-glucosidase); test: maltose hydrolysis on Caco-2 monolayer, liberated glucose by glucose oxidase; format: cell-based, Homo sapiens; conditions: 28 mM maltose in PBS; 37 °C, 2 h; reversible
T1 construct: gene SI; native enzyme on the apical side of differentiated Caco-2 monolayer

[2] = target: T2, rat intestinal α-glucosidase (maltase activity); test: maltose hydrolysis, liberated glucose by glucose oxidase; format: biochemical; conditions: maltose 3.5 mM stock (0.35 of 0.5 mL); 0.1 M potassium phosphate pH 6.3; 37 °C, 15 min; crude enzyme
T2 construct: gene Mgam; crude native enzyme solution from rat intestinal acetone powder (Sigma-Aldrich); maltose hydrolysis; not purified

- IC50 [2]: 37 µg/mL (≈ 38.8 µM)
SMILES: O=C(O)C[C@@H]1C(=O)O[C@H]2[C@@H]3OC(=O)c4cc(O)c(O)c(O)c4-c4c(cc(O)c(O)c4O)C(=O)OC[C@H]2O[C@@H](OC(=O)c2cc(O)c(O)c(O)c2)[C@@H]3OC(=O)c2cc(O)c(O)c3c2[C@H]1[C@H](O)C(=O)O3 [chebulagic acid]
- % inhibition at 0.5 mM/well [1]: 73%

— PMC3382786, “Anti-Hyperglycemic Effect of Chebulagic Acid from the Fruits of Terminalia chebula Retz” (International Journal of Molecular Sciences, 2012)
